Data taken from paper PMC5712521, “Dendrogenin A drives LXR to trigger lethal autophagy in cancers” (Nature Communications, 2017).

How the values were obtained:
KG1 cells [1] = assay: Immunoblot densitometry; assay type: cell-based, human; details: KG1, 24 h; 5 µM DDA, 2 µM TO, 2 µM GW, 10 µM 22(R)HC
Experimental: Immunoblotting was carried out as described previously. Proteins were separated on SDS-PAGE gels, electro-transferred onto polyvinylidene difluoride membranes and incubated overnight at 4 °C with the following antibodies: anti-Atg3, anti-Atg5 (D1G9), anti-Atg7 (D12B11), anti-Beclin (D40C5), anti-caspase-3 (Cell Signaling), anti-Bcl-2 (Millipore), anti-Bax (Millipore), anti-LC3 (Sigma-Aldrich), anti-LXRα (SantaCruz), anti-LXRβ (SantaCruz), anti-Nur77 (Active motif), anti-NOR1 (R&D systems), anti-PARP (Cell Signaling), anti-Vps34 (Cell Signaling), or anti-Actin (Millipore). For visualization, an ECL plus kit (Amersham Biosciences) was used, and chemiluminescence was measured by autoradiography (Supplementary Fig. 9). Specific bands were quantified with ImageQuant software.
(§1) Supplementary Fig. 6. […]
D ata from b, f, g, h, j, p, q ar e the m eans ± S.E.M. of 3 independent experiments performed in triplicate (*P<0.05, **P<0.01, ***P<0.001, t test). Images are representative of 3 independent experim ents.
Supplementary Fig. 7. a Im munoblots of Nur77 and NOR1 proteins in cells treated or not for 24 h with 5 µM DDA. b Real-time PCR of Nur77 and NOR1 expression in KG1 cells stably transfected with control shRNA (clone shCTRL) or with shRNA against LXRβ (clones sh3LXRβ and sh4LXRβ) and treated with 10 µM DDA for 24 h. c Immunoblots of Nur77 and NOR1 protein expression in KG1 cells stably transfected with control shRNA (clone shCTRL), shRNA against Nur77 (shNur77), shRNA against NOR1 (shNOR1), or shRNAs against both Nur77 and NOR1 (shNur77 + shNOR1). d NOD/SCID mice
(n=16- 20 mice/group) engrafted with KG1 cells or HL60 cells were treated with DDA (20 mg/kg/day, i.p.) or solvent vehicle (control). Tumor growth was monitored over time and was analyzed for significance using repeated measures ANOVA (***P<0.001). The mean tumor volumes ± SEM are shown. e Average tumor weight at the end of the experiments in d. *P<0.5, **P<0.01, ANOVA. f Mean tumor volumes measured at the end of the experiments for HL60 and KG1 graf ted into NOD/SCID or NMRI-Fo x1 -nude mice treated with DDA (40 mg/kg/day, p.o. or 20 mg/kg/day, i.p.) or solvent vehicle (control) (n=10- 20 mice per group). Values represent the means ± S.E.M. (**P<0.01, ***P<0.001, ANOVA). g Histochemical analysis of the expression of LC3 and P62 in HL60 tumor sections isolated from NOD/SCID mice treated or not with DDA (20 mg/kg/day, i.p.). h Quantification of LC3 punctate cells in shCTRL and shLXRβ KG1 tumors. i Quantification of DDA levels in tumors 4 h after the final administration of DDA. j Box plot of TCGA RNA-seq data from patients with melanoma showing that LXRβ is the predominant LXR isoform expressed.
***P<0.001. k, l Immunoblotting of the indicated proteins in primary AML cells exposed to vehicle or 5 µM DDA for 24 h. m, n qPCR analysis of the expression of Nur77 and NOR1 in primary AML cells from 10 patients exposed to vehicle or DDA for 24 h. Bars represent S.E.M. (**P<0.01, ***P<0.001, t test). Data from b, h, i represent means ± S.E.M. of triplicate samples (>100 cell analyses per sample), **P<0.01, ***P<0.001, t test. All data or images are representative of 3 independent experiments.

KG1 cells [2] = assay: qRT-PCR of Nur77 and NOR1; assay type: cell-based, human; details: KG1, 24 h; 5 µM DDA, 2 µM TO, 2 µM GW, 10 µM 22(R)HC
Experimental: (§2) Total RNA was extracted from tumor cells or MEFs using an RNA Extraction kit (Qiagen) or Trizol (Invitrogen), respectively, and was quantified with NanoDrop. Complementary DNA (cDNA) synthesis was performed with 1 μg RNA iScript Reverse Transcriptase (Bio-Rad). 25 ng cDNA was amplified using SyBR Supermix (Bio-Rad). RNA expression of the different genes of interest (Supplementary Tables 1, 2) were determined using the ΔΔCT method, where the difference in the threshold cycle (ΔCT) values of the target gene and the housekeeping gene for each sample was normalized to the ΔCT value of the untreated sample.
as §1
(§3) D ata are expressed relative to the control (solvent vehic le). D ata from b, f, g, h, j, p, q ar e the m eans ± S.E.M. of 3 independent experiments performed in triplicate (*P<0.05, **P<0.01, ***P<0.001, t test). Images are representative of 3 independent experim ents.

HL60 cells = assay: qRT-PCR of Nur77 and NOR1; assay type: cell-based, human; details: HL60, 24 h; 5 µM DDA, 2 µM TO, 2 µM GW, 10 µM 22(R)HC
Experimental: as §2, §1, §3

B16F10 cells = assay: RT-qPCR of LXR-responsive genes; assay type: cell-based, mouse; details: 8 h, 2.5 µM DDA, 10 µM 22(R)HC, 1 µM GW, 100 nM TO, vs vehicle
Experimental: as §2
Supplementary Fig. 4. a R egulat ion of LXR-responsive genes b y D DA and other k nown LXR
ligands in B16F10 and SKMEL- 28 cells transfected with s iRN A targeting LXRβ ( siLXRβ) or
with contro l siRN A scram ble (siSC). Cells were treated for 8 h with either solvent vehicle, 2.5
µM DD A, 10 µM 22(R) hydrox ycholesterol (22(R)HC), 1 µM GW 3965 (GW ) or 100 nM
T O901317 (T O). […]

O=S(=O)(c1ccccc1)N(CC(F)(F)F)c1ccc(C(O)(C(F)(F)F)C(F)(F)F)cc1 [TO, TO901317]
LC3-II protein, densitometry relative to control (KG1 cells [1]): 1.0 | NOR1 mRNA levels (Fold over control) (KG1 cells [2]): 1.1 fold | Nur77 mRNA levels (Fold over control) (KG1 cells [2]): 1.5 fold | NOR1 mRNA levels (Fold over control) (HL60 cells): 2.7 fold | Nur77 mRNA levels (Fold over control) (HL60 cells): 0.4 fold | ABCA1 mRNA (B16F10 cells; B16F10, siCT): 8.5±1.8 fold | ABCG1 mRNA (B16F10 cells; B16F10, siCT): 1.1±0.3 fold | ABCG5 mRNA (B16F10 cells; B16F10, siCT): 3.6±0.6 fold | ABCG8 mRNA (B16F10 cells; B16F10, siCT): 1.5±0.1 fold | LC3A mRNA (B16F10 cells; B16F10, siCT): 1.0±0.3 fold | LC3B mRNA (B16F10 cells; B16F10, siCT): 1.3±0.1 fold | LDLR mRNA (B16F10 cells; B16F10, siCT): 1.7±0.1 fold | NOR1 mRNA (B16F10 cells; B16F10, siCT): 1.9±0.2 fold | Nur77 mRNA (B16F10 cells; B16F10, siCT): 0.9±0.3 fold | SCD1 mRNA (B16F10 cells; B16F10, siCT): 1.6±0.2 fold | SREBP1 mRNA (B16F10 cells; B16F10, siCT): 3.3±0.1 fold | SULT2b1b mRNA (B16F10 cells; B16F10, siCT): 3.2±0.2 fold | ABCA1 mRNA (B16F10 cells; B16F10, siLXRβ): 2.0±0.4 fold | ABCG1 mRNA (B16F10 cells; B16F10, siLXRβ): 1.0±0.1 fold | ABCG5 mRNA (B16F10 cells; B16F10, siLXRβ): 1.0±0.2 fold | ABCG8 mRNA (B16F10 cells; B16F10, siLXRβ): 1.1±0.2 fold | LC3A mRNA (B16F10 cells; B16F10, siLXRβ): 1.0±0.2 fold | LC3B mRNA (B16F10 cells; B16F10, siLXRβ): 1.2±0.3 fold | LDLR mRNA (B16F10 cells; B16F10, siLXRβ): 1.0±0.2 fold | NOR1 mRNA (B16F10 cells; B16F10, siLXRβ): 0.7±0.3 fold | Nur77 mRNA (B16F10 cells; B16F10, siLXRβ): 0.6±0.2 fold | SCD1 mRNA (B16F10 cells; B16F10, siLXRβ): 0.9±0.1 fold | SREBP1 mRNA (B16F10 cells; B16F10, siLXRβ): 0.9±0.2 fold | SULT2b1b mRNA (B16F10 cells; B16F10, siLXRβ): 1.2±0.3 fold
